Assay results from ChEMBL document CHEMBL1201862, “PubChem BioAssay data set” (2004).
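In this assay, cells in 96-well plates receive the compound at five concentrations for 48 hours. Endpoints are linearly interpolated between the surrounding concentrations. GI50 = concentration required for 50% inhibition of growth.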 Calls of active or inactive are those of the source. Rule as the data show it: active = GI50 up to about 1.1 µM and inactive = higher.

Tests used:
Experiment in all cases: NCI tumour cell line growth inhibition, 48 h
[1] = test system: OVCAR-3
[2] = test system: MCF7
[3] = test system: KM12
[4] = test system: OVCAR-4
[5] = test system: SF-539
[6] = test system: ACHN
[7] = test system: TK-10
[8] = test system: HCT-116
[9] = test system: HCT-15
[10] = test system: SNB-19
[11] = test system: IGROV-1
[12] = test system: EKVX
[13] = test system: U-251
[14] = test system: HT-29
[15] = test system: SK-MEL-2
[16] = test system: NCI/ADR-RES
[17] = test system: OVCAR-5
[18] = test system: HOP-62
[19] = test system: LOX IMVI
[20] = test system: HOP-92

| Structure (SMILES) | GI50 [1] | GI50 [2] | GI50 [3] | GI50 [4] | GI50 [5] | GI50 [6] | GI50 [7] | GI50 [8] | GI50 [9] [µM] | GI50 [10] | GI50 [11] | GI50 [12] | GI50 [13] | GI50 [14] | GI50 [15] | GI50 [16] | GI50 [17] | GI50 [18] | GI50 [19] | GI50 [20] |
| --- | --- | --- | --- | --- | --- | --- | --- | --- | --- | --- | --- | --- | --- | --- | --- | --- | --- | --- | --- | --- |
| CC(C)(C)c1ccc(O)c(CN(Cc2cc(C(C)(C)C)ccc2O)C2CCCCC2)c1 | 18.2 µM (inactive) | 17.4 µM (inactive) | 20.5 µM (inactive) | 16.9 µM (inactive) | 17.3 µM (inactive) | 20 µM (inactive) | 17.7 µM (inactive) | 16.2 µM (inactive) | 20.7 | 18 µM (inactive) | 17.6 µM (inactive) | 17.5 µM (inactive) | 16.5 µM (inactive) | 16.1 µM (inactive) | 18.5 µM (inactive) | 20.3 µM (inactive) | 17.7 µM (inactive) | 18.5 µM (inactive) | 10.7 µM (inactive) | 16 µM (inactive) |
| O=C1/C(=C/c2ccc(Cl)c(Cl)c2)CNC/C1=C\c1ccc(Cl)c(Cl)c1 | 3.89 µM (inactive) | 7.64 µM (inactive) | 6.76 µM (inactive) | 2.52 µM (inactive) | 7.87 µM (inactive) | 18.1 µM (inactive) | 31 µM (inactive) | 2.57 µM (inactive) | 2.94 | 1.46 µM (inactive) | 7.6 µM (inactive) | 6.17 µM (inactive) | 5.11 µM (inactive) | 5.35 µM (inactive) | 23.3 µM (inactive) | 3.66 µM (inactive) | 18.3 µM (inactive) | 14.5 µM (inactive) | 5.07 µM (inactive) | 22 µM (inactive) |
| Nc1ncnc2nn(C3OC(CO)C(O)C3O)nc12 (stereo not given) | 7.57 µM (inactive) | 8.28 µM (inactive) | 10.1 µM (inactive) | 28 µM (inactive) | 21.8 µM (inactive) | 3.67 µM (inactive) | 3.56 µM (inactive) | 7.87 µM (inactive) | 5.62 | 29.6 µM (inactive) | 4.12 µM (inactive) | 41.3 µM (inactive) | 23.1 µM (inactive) | 8.81 µM (inactive) | 2.99 µM (inactive) | 9.73 µM (inactive) | 9.06 µM (inactive) | 14 µM (inactive) | 6.32 µM (inactive) | 20 µM (inactive) |
| [O-][S+](CCCl)c1c2ccccc2nc2ccccc12 (stereo not given) | > 100 µM (inactive) | 28.2 µM (inactive) | 65.3 µM (inactive) | > 100 µM (inactive) | 31.9 µM (inactive) | > 100 µM (inactive) | > 100 µM (inactive) | 42.1 µM (inactive) | > 100 | > 100 µM (inactive) | 38.6 µM (inactive) | > 100 µM (inactive) | > 100 µM (inactive) | 53.6 µM (inactive) | > 100 µM (inactive) | > 100 µM (inactive) | > 100 µM (inactive) | > 100 µM (inactive) | 79.4 µM (inactive) | > 100 µM (inactive) |
| O=C1N/C(=N/N=C/C(O)C(O)C(O)C(O)CO)N/C1=C\c1cccs1 (stereo not given) | > 100 µM (inactive) | > 100 µM (inactive) | > 100 µM (inactive) | > 100 µM (inactive) | > 100 µM (inactive) | > 100 µM (inactive) | > 100 µM (inactive) | > 100 µM (inactive) | > 100 | > 100 µM (inactive) | > 100 µM (inactive) | 87.1 µM (inactive) | > 100 µM (inactive) | > 100 µM (inactive) | > 100 µM (inactive) | > 100 µM (inactive) | > 100 µM (inactive) | > 100 µM (inactive) | > 100 µM (inactive) | > 100 µM (inactive) |
| CC1(C)CCC2=C(O1)/C(=N\Nc1ccccc1)c1ccccc1C2=O | 24 µM (inactive) | 18.9 µM (inactive) | 32.8 µM (inactive) | 31.2 µM (inactive) | 26.5 µM (inactive) | 17.7 µM (inactive) | 17.8 µM (inactive) | 16.9 µM (inactive) | 29.6 | 40.4 µM (inactive) | 34.6 µM (inactive) | 20.9 µM (inactive) | 24.8 µM (inactive) | 15.9 µM (inactive) | 16 µM (inactive) | 31.1 µM (inactive) | 31.3 µM (inactive) | 35.4 µM (inactive) | 22 µM (inactive) | 24 µM (inactive) |
| C/C(=C\Cc1ccc(F)cc1)CCCCCC/C(C)=C/Cc1ccc(F)cc1 | 22.9 µM (inactive) | 19.3 µM (inactive) | 2.25 µM (inactive) | 16.3 µM (inactive) | 16.7 µM (inactive) | 12.2 µM (inactive) | 15.5 µM (inactive) | 15.8 µM (inactive) | 16.8 | 32.9 µM (inactive) | 4.63 µM (inactive) | 14.9 µM (inactive) | 18.1 µM (inactive) | 16.1 µM (inactive) | 16.9 µM (inactive) | 11.9 µM (inactive) | 16.2 µM (inactive) | 10.5 µM (inactive) | 3.91 µM (inactive) | 10.2 µM (inactive) |
| COc1ccc2c(c1)C(N)=C(c1ccccc1OC)C2=O | > 100 µM (inactive) | > 100 µM (inactive) | 76.6 µM (inactive) | 99.5 µM (inactive) | > 100 µM (inactive) | > 100 µM (inactive) | > 100 µM (inactive) | > 100 µM (inactive) | > 100 | > 100 µM (inactive) | > 100 µM (inactive) | > 100 µM (inactive) | > 100 µM (inactive) | > 100 µM (inactive) | > 100 µM (inactive) | > 100 µM (inactive) | > 100 µM (inactive) | > 100 µM (inactive) | > 100 µM (inactive) | > 100 µM (inactive) |
| CN(C)CCCOC(=O)C(c1ccccc1)C1(O)CCSCC1 (stereo not given) | > 100 µM (inactive) | > 100 µM (inactive) | 68.2 µM (inactive) | > 100 µM (inactive) | > 100 µM (inactive) | > 100 µM (inactive) | > 100 µM (inactive) | > 100 µM (inactive) | > 100 | 26.8 µM (inactive) | > 100 µM (inactive) | > 100 µM (inactive) | > 100 µM (inactive) | > 100 µM (inactive) | > 100 µM (inactive) | 10.2 µM (inactive) | > 100 µM (inactive) | > 100 µM (inactive) | > 100 µM (inactive) | > 100 µM (inactive) |
| CCOC(=O)c1[nH]c2ccccc2c1C(=O)C[C@H](NC(=O)C(F)(F)F)C(=O)OC | > 100 µM (inactive) | > 100 µM (inactive) | > 100 µM (inactive) | > 100 µM (inactive) | > 100 µM (inactive) | > 100 µM (inactive) | > 100 µM (inactive) | > 100 µM (inactive) | > 100 | > 100 µM (inactive) | > 100 µM (inactive) | > 100 µM (inactive) | > 100 µM (inactive) | > 100 µM (inactive) | > 100 µM (inactive) | 84.1 µM (inactive) | > 100 µM (inactive) | > 100 µM (inactive) | > 100 µM (inactive) | > 100 µM (inactive) |
| COC(=O)[C@@]12C(=O)C=CC(=O)[C@@H]1C1C(=CC2COC(C)=O)O[C@@H]2OC3(CCCCC3)O[C@H]12 (stereo not given in full) | 6.37 µM (inactive) | 14.1 µM (inactive) | 13 µM (inactive) | 5.24 µM (inactive) | 10.4 µM (inactive) | 9.04 µM (inactive) | 8.38 µM (inactive) | 5.69 µM (inactive) | 5.66 | 16.1 µM (inactive) | 16 µM (inactive) | 15.4 µM (inactive) | 15.6 µM (inactive) | 6.01 µM (inactive) | 20.2 µM (inactive) | 12.8 µM (inactive) | 16.7 µM (inactive) | 19.8 µM (inactive) | 9.95 µM (inactive) | 8.49 µM (inactive) |
